According to PubChem BioAssay AID2060624 (Molecular Pharmacology Branch, DTP, NCI, 2025):

Test system: 217524-143-R1-J4-PDC spheroids with HUVEC/MSC, viability
Assay: Anticancer human tumor 217524-143-R1-J4-PDC patient-derived pancreatic carcinoma cell line growth inhibition [CLK]
Conditions: for IC50: curve of first compound; for viability, T/C: stronger effect = lower value
Procedure, shortened: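 Patient-derived tumor cells grown as complex spheroids with HUVEC endothelial cells and mesenchymal stem cells, treated with drug combinations. Concentrations descend in half-log steps from near clinical Cmax, or from 10 microM if Cmax unknown.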

[1] = second compound 0.0316 µM, first compound 0.0316 µM
[2] = second compound 0.0316 µM, first compound 0.1 µM
[3] = second compound 0.1 µM, first compound 0.0316 µM
[4] = second compound 0.1 µM, first compound 0.1 µM
[5] = second compound 0.316 µM, first compound 0.0316 µM
[6] = second compound 0.316 µM, first compound 0.1 µM
[7] = second compound 1 µM, first compound 0.0316 µM
[8] = second compound 1 µM, first compound 0.1 µM
[9] = second compound 3.16 µM, first compound 0.0316 µM
[10] = second compound 3.16 µM, first compound 0.1 µM
[11] = second compound 10 µM, first compound 0.0316 µM
[12] = second compound 10 µM, first compound 0.1 µM
[13] = second compound 0.0316 µM, first compound 0.316 µM
[14] = second compound 0.0316 µM, first compound 1 µM
[15] = second compound 0.0316 µM, first compound 3.16 µM
[16] = second compound 0.0316 µM, first compound 10 µM
[17] = second compound 0.1 µM, first compound 0.316 µM
[18] = second compound 0.1 µM, first compound 1 µM
[19] = second compound 0.1 µM, first compound 3.16 µM
[20] = second compound 0.1 µM, first compound 10 µM
[21] = second compound 0.316 µM, first compound 0.316 µM
[22] = second compound 0.316 µM, first compound 1 µM
[23] = second compound 0.316 µM, first compound 3.16 µM
[24] = second compound 0.316 µM, first compound 10 µM
[25] = second compound 1 µM, first compound 0.316 µM
[26] = second compound 1 µM, first compound 1 µM
[27] = second compound 1 µM, first compound 3.16 µM
[28] = second compound 1 µM, first compound 10 µM
[29] = second compound 3.16 µM, first compound 0.316 µM
[30] = second compound 3.16 µM, first compound 1 µM
[31] = second compound 3.16 µM, first compound 3.16 µM
[32] = second compound 3.16 µM, first compound 10 µM
[33] = second compound 10 µM, first compound 0.316 µM
[34] = second compound 10 µM, first compound 1 µM
[35] = second compound 10 µM, first compound 3.16 µM
[36] = second compound 10 µM, first compound 10 µM
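Also: spheroids exposed to agents for seven days before reading.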
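For viability, T/C in this document: 100% = DMSO vehicle control viability.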

## Cn1ncnc1[C@H]1c2n[nH]c(=O)c3cc(F)cc(c23)N[C@@H]1c1ccc(F)cc1 + CN1CCN(c2cc(C(=O)Nc3cc4cc(-c5cnn(C)c5)ccc4cn3)ccn2)CC1
Second compound 0.0316 µM
  IC50: > 100 nM
Second compound 0.1 µM
  IC50: 1.71 nM
Second compound 0.316 µM
  IC50: < 0.316 nM
Second compound 1 µM
  IC50: < 0.316 nM
Second compound 3.16 µM
  IC50: < 0.316 nM
Second compound 10 µM
  IC50: < 0.316 nM
Second compound 0.0316 µM, first compound 0.000316 µM
  viability, T/C: 80.5%
Second compound 0.0316 µM, first compound 0.001 µM
  viability, T/C: 71%
Second compound 0.0316 µM, first compound 0.00316 µM
  viability, T/C: 61.8%
Second compound 0.0316 µM, first compound 0.01 µM
  viability, T/C: 65.4%
[1]
  viability, T/C: 84.7%
[2]
  viability, T/C: 60.3%
Second compound 0.1 µM, first compound 0.000316 µM
  viability, T/C: 54.1%
Second compound 0.1 µM, first compound 0.001 µM
  viability, T/C: 48.5%
Second compound 0.1 µM, first compound 0.00316 µM
  viability, T/C: 50.8%
Second compound 0.1 µM, first compound 0.01 µM
  viability, T/C: 43.5%
[3]
  viability, T/C: 50.1%
[4]
  viability, T/C: 42.8%
Second compound 0.316 µM, first compound 0.000316 µM
  viability, T/C: 21.2%
Second compound 0.316 µM, first compound 0.001 µM
  viability, T/C: 23.4%
Second compound 0.316 µM, first compound 0.00316 µM
  viability, T/C: 18.8%
Second compound 0.316 µM, first compound 0.01 µM
  viability, T/C: 17.7%
[5]
  viability, T/C: 18.8%
[6]
  viability, T/C: 17.2%
Second compound 1 µM, first compound 0.000316 µM
  viability, T/C: 1.28%
Second compound 1 µM, first compound 0.001 µM
  viability, T/C: 1.4%
Second compound 1 µM, first compound 0.00316 µM
  viability, T/C: 1.52%
Second compound 1 µM, first compound 0.01 µM
  viability, T/C: 1.16%
[7]
  viability, T/C: 1.67%
[8]
  viability, T/C: 1.12%
Second compound 3.16 µM, first compound 0.000316 µM
  viability, T/C: 0.67%
Second compound 3.16 µM, first compound 0.001 µM
  viability, T/C: 0.66%
Second compound 3.16 µM, first compound 0.00316 µM
  viability, T/C: 0.75%
Second compound 3.16 µM, first compound 0.01 µM
  viability, T/C: 0.62%
[9]
  viability, T/C: 0.71%
[10]
  viability, T/C: 0.48%
Second compound 10 µM, first compound 0.000316 µM
  viability, T/C: 0.16%
Second compound 10 µM, first compound 0.001 µM
  viability, T/C: 0.26%
Second compound 10 µM, first compound 0.00316 µM
  viability, T/C: 0.15%
Second compound 10 µM, first compound 0.01 µM
  viability, T/C: 0.25%
[11]
  viability, T/C: 0.18%
[12]
  viability, T/C: 0.17%

## Nc1ccn(C2OC(CO)C(O)C2(F)F)c(=O)n1 (stereo unspecified) + CN1CCN(c2cc(C(=O)Nc3cc4cc(-c5cnn(C)c5)ccc4cn3)ccn2)CC1
Second compound 0.0316 µM
  IC50: 43.2 nM
Second compound 0.1 µM
  IC50: < 31.6 nM
Second compound 0.316 µM
  IC50: < 31.6 nM
Second compound 1 µM
  IC50: < 31.6 nM
Second compound 3.16 µM
  IC50: < 31.6 nM
Second compound 10 µM
  IC50: < 31.6 nM
[1]
  viability, T/C: 60.1%
[2]
  viability, T/C: 22.9%
[13]
  viability, T/C: 20.5%
[14]
  viability, T/C: 19.9%
[15]
  viability, T/C: 24.1%
[16]
  viability, T/C: 22.6%
[3]
  viability, T/C: 36%
[4]
  viability, T/C: 22.9%
[17]
  viability, T/C: 16.1%
[18]
  viability, T/C: 16.9%
[19]
  viability, T/C: 18.9%
[20]
  viability, T/C: 17.9%
[5]
  viability, T/C: 15.4%
[6]
  viability, T/C: 10.9%
[21]
  viability, T/C: 11.6%
[22]
  viability, T/C: 9.15%
[23]
  viability, T/C: 13.3%
[24]
  viability, T/C: 10.8%
[7]
  viability, T/C: 1.8%
[8]
  viability, T/C: 1.09%
[25]
  viability, T/C: 1.22%
[26]
  viability, T/C: 1.31%
[27]
  viability, T/C: 1.04%
[28]
  viability, T/C: 1.02%
[9]
  viability, T/C: 0.72%
[10]
  viability, T/C: 0.59%
[29]
  viability, T/C: 0.75%
[30]
  viability, T/C: 0.76%
[31]
  viability, T/C: 0.87%
[32]
  viability, T/C: 0.72%
[11]
  viability, T/C: 0.2%
[12]
  viability, T/C: 0.2%
[33]
  viability, T/C: 0.21%
[34]
  viability, T/C: 0.25%
[35]
  viability, T/C: 0.24%
[36]
  viability, T/C: 0.22%

## O=c1[nH]cc(F)c(=O)[nH]1 + CN1CCN(c2cc(C(=O)Nc3cc4cc(-c5cnn(C)c5)ccc4cn3)ccn2)CC1
Second compound 0.0316 µM
  IC50: 505 nM
Second compound 0.1 µM
  IC50: 196 nM
Second compound 0.316 µM
  IC50: < 31.6 nM
Second compound 1 µM
  IC50: < 31.6 nM
Second compound 3.16 µM
  IC50: < 31.6 nM
Second compound 10 µM
  IC50: < 31.6 nM
[1]
  viability, T/C: 78.1%
[2]
  viability, T/C: 74.9%
[13]
  viability, T/C: 46.5%
[14]
  viability, T/C: 49.6%
[15]
  viability, T/C: 30.2%
[16]
  viability, T/C: 28.1%
[3]
  viability, T/C: 59.5%
[4]
  viability, T/C: 57.5%
[17]
  viability, T/C: 45.2%
[18]
  viability, T/C: 32.4%
[19]
  viability, T/C: 29%
[20]
  viability, T/C: 21.7%
[5]
  viability, T/C: 21.9%
[6]
  viability, T/C: 23.4%
[21]
  viability, T/C: 21.2%
[22]
  viability, T/C: 16.1%
[23]
  viability, T/C: 15.7%
[24]
  viability, T/C: 13.4%
[7]
  viability, T/C: 1.26%
[8]
  viability, T/C: 1.5%
[25]
  viability, T/C: 1.42%
[26]
  viability, T/C: 1.31%
[27]
  viability, T/C: 1.3%
[28]
  viability, T/C: 1.65%
[9]
  viability, T/C: 0.71%
[10]
  viability, T/C: 0.91%
[29]
  viability, T/C: 0.78%
[30]
  viability, T/C: 0.61%
[31]
  viability, T/C: 0.63%
[32]
  viability, T/C: 0.59%
[11]
  viability, T/C: 0.15%
[12]
  viability, T/C: 0.14%
[33]
  viability, T/C: 0.15%
[34]
  viability, T/C: 0.13%
[35]
  viability, T/C: 0.18%
[36]
  viability, T/C: 0.19%
